From ChEMBL document CHEMBL3044895, “Insecticidal and Antiacetyicholinesterase Activities of Isobutylthioaryl Methanesulfonates” (J Pestic Sci, 1991) come the findings set out here.

For data set [1], the system named is Nilaparvata lugens. Put plainly: Insecticidal activity against Nilaparvata lugens (brown planthopper) assessed as mortality at 200 ppm after 2 days by foliar spraying method. Format: functional. Particulars: 48 h.
The subject of data set [2] is Nilaparvata lugens. Briefly: Insecticidal activity against Nilaparvata lugens (brown planthopper) assessed as mortality at 200 ppm after 6 days by foliar spraying method. The class given is functional. As to conditions: 144 h.
The next data set deals with Culex pipiens. Briefly: Insecticidal activity against Culex pipiens assessed as mortality at 200 ppm after 2 days by immersion method. The class given is functional. As to conditions: 48 h.
The subject of a further data set is Plutella xylostella. Put plainly: Insecticidal activity against Plutella xylostella (diamondback moth) assessed as mortality at 200 ppm after 2 days by foliar spraying method. Particulars: 48 h. Format: functional.
The test system of data set [3] is Nephotettix cincticeps. Briefly: Insecticidal activity against Nephotettix cincticeps Izumi (green rice leafhopper) assessed as mortality at 200 ppm after 2 days by foliar spraying method. Format: functional. Particulars: 48 h.
The nature of data set [4]: Lipophilicity, log K of the compound. Particulars: octanol/water. Format: physicochemical.
Data set [5] is described as follows: Drug degradation in sorensen buffer assessed as hydrolysis at 3 x 10^-5 M at pH 7.4 after 24 hr. The class given is physicochemical. Particulars: read-out: Drug degradation.
The test system of data set [6] is Nephotettix cincticeps. Briefly: Insecticidal activity against Nephotettix cincticeps Izumi (green rice leafhopper) assessed as mortality at 200 ppm after 6 days by foliar spraying method. The class given is functional. As to conditions: 144 h.
In data set [7] the test system is Nephotettix cincticeps. Put plainly: Insecticidal activity against drug-susceptible Nephotettix cincticeps Ageo (green rice leafhopper) assessed as mortality […] after 2 days by foliar spraying method. Format: functional. As to conditions: 48 h.
The test system of the next data set is Tetranychus urticae. Put plainly: Acaricidal activity against Tetranychus urticae (two-spotted spider mite) assessed as mortality at 200 ppm after 2 days by leaf dipping method. Format: functional. Particulars: foliar, 48 h.
In data set [8] the test system is Nephotettix cincticeps. Put plainly: Insecticidal activity against drug-resistant Nephotettix cincticeps Izumi (green rice leafhopper) assessed as mortality […] after 2 days by foliar spraying method. The class given is functional. Particulars: 48 h.

Molecules are shown by their SMILES. A value given as a limit tells only on which side of the number the result lay.

A word on the mortality: it is the share of the test organisms that died. A word on the LD50: it is the dose expected to kill half of the subjects tested. For `CC(C)CSc1cc(OS(C)(=O)=O)ccn1`, the mortality at 200 ppm turned out to be 70% in the data set on Nilaparvata lugens [1]; 100% in the data set with Nilaparvata lugens [2]; 100% with Culex pipiens; 70% in the data set with Plutella xylostella; 30% in the data set with Nephotettix cincticeps [3]; 70% in the data set on Nephotettix cincticeps [6]. In the data set on Tetranychus urticae, the mortality at 200 ppm was below 10%. Moreover, in [4], the “log K” value stood at 0.379. Besides, the degraded at 24 h, 30 µM in data set [5] stood at 5.9%. The LD50 with Nephotettix cincticeps [7] was determined as 5.4 mg/kg; in the data set with Nephotettix cincticeps [8] it was 66.4 mg/kg.

Consider `CC(C)CSc1cc(OS(C)(=O)=O)ncn1` [6-(ISOBUTYLTHIO)PYRIMIDIN-4-YL METHANESULFONATE], for which the mortality at 200 ppm amounted to 80% in the data set with Nilaparvata lugens [1]; 100% in the data set with Nilaparvata lugens [2]; 0% in the data set with Culex pipiens; 0% in the data set on Plutella xylostella; 0% in the data set with Nephotettix cincticeps [3]; 0% with Nephotettix cincticeps [6]. Besides, the mortality at 200 ppm with Tetranychus urticae is below 10%. In data set [4], the “log K” value amounted to 0.391. The degraded at 24 h, 30 µM in [5] is 100%. Moreover, the LD50 in the data set with Nephotettix cincticeps [7] and in the data set with Nephotettix cincticeps [8] was above 100 mg/kg throughout.
